# Patent US20260049085A1, “CYCLIC COMPOUNDS AND METHODS OF USING SAME” (SCHRÖDINGER, INC., priority 2022, published 2026)
# Biological target: T1, full-length MALT1 protein His-MALT1(1-824) (Homo sapiens, UniProt Q9UDY8)
# T1 construct: full-length MALT1 protein His-MALT1(1-824); His (N); made in house; host or cells: baculovirus-infected insect cells
# T1 sequence (Q9UDY8 1-824): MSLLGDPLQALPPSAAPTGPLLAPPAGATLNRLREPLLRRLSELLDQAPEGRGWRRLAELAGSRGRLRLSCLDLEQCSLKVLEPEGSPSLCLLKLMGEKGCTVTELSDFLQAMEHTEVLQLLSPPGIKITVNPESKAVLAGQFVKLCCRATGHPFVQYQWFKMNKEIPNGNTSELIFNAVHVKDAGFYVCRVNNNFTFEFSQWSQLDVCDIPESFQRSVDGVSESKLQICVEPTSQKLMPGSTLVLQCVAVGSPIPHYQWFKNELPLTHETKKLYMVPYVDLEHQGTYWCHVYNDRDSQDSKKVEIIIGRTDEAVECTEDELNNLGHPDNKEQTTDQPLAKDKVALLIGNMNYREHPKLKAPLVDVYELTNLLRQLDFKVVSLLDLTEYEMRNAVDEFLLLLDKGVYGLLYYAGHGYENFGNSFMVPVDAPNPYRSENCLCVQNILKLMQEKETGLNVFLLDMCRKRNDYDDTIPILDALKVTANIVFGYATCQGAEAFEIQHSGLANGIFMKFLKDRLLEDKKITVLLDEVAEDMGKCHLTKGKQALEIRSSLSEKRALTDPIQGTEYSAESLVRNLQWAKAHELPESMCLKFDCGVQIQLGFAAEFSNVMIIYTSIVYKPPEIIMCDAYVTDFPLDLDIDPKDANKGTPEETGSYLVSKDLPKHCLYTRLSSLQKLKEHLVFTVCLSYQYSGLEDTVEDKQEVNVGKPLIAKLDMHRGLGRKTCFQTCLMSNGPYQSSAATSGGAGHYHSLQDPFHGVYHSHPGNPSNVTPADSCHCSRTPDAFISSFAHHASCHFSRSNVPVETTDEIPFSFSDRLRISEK
# Experiment: MALT1 protease assay (Ac-LRSR-AMC tetrapeptide substrate, fluorescence)
# Type: biochemical
# Settings: 1 nM MALT1, 25 μM Ac-LRSR-AMC, 2 h pre-incubation, 8 hr incubation at RT
# Method: MALT1 protease activity was assessed in an in vitro assay using a tetrapeptide as substrate and full-length MALT1 protein His-MALT1(1-824) purified from baculovirus-infected insect cells.
# The final assay buffer includes 1 nM of MALT1 full-length protein, 25 μM Ac-LRSR-AMC substrate, 50 mM Tris pH 7.5, 600 mM Sodium Citrate, 1 mM DTT, 1 mM EDTA, and 0.05% BSA in 384-well plate format using black microtiter square well plates (Optiplate 384-F, Perkin Elmer).
# Test compounds were dissolved in 100% DMSO stock of 10 mM, with final DMSO concentration of 0.1%. Test compounds were pre-incubated with MALT1 protein for 2 h at room temperature. Substrate was added after the pre-incubation and fluorescence signal was measured using Envision at excitation 355 nm and emission 460 nm after 8 hr incubation at RT.
# The fluorescence units were transformed to percentage of remaining activity by using the high control (HC, median of fluorescence signal from wells containing MALT1 protein, substrate, and DMSO) and low control (LC, median of fluorescence signal from wells with substrate only) with the formula below: […]
# IC50 and Hill coefficients were obtained using Graph Pad Prism (Graph Pad software, Inc, USA) with non-linear regression analysis.
row,Structure (SMILES),IC50
1,"COc1cc(NC(=O)[C@H]2C[C@@](C)(c3ccn(C(F)F)n3)c3c2cnc2cc(F)nn32)cnc1-c1ncccn1 (single isomer, unassigned) [Example 181]",≥ 1 µM
2,"C[C@]1(c2ccn(C(F)F)n2)C[C@H](C(=O)Nc2ccc(-c3ncccn3)c(Cl)c2)c2cnc3cc(F)nn3c21 (single isomer, unassigned) [Example 189]",0.01 to 0.1 µM
3,"Cn1cc([C@@]2(C)C[C@@H](C(=O)Nc3cnc(-n4nccn4)c(Cl)c3)c3cnc4cc(Cl)nn4c32)cn1 (single isomer, unassigned) [Example 11]",0.1 to 1 µM
4,"Cn1nccc1[C@]1(C)C[C@H](C(=O)Nc2cnc(-n3nccn3)c(Cl)c2)c2cnc3cc(F)nn3c21 (single isomer, unassigned) [Example 66]",0.1 to 1 µM
5,"CCn1cc([C@]2(C)C[C@@H](C(=O)Nc3cnc(-n4nccn4)c(Cl)c3)c3cnc4cc(F)nn4c32)cn1 (single isomer, unassigned) [Example 21]",≥ 1 µM
6,"CC(F)(F)n1ccc([C@]2(C)C[C@@H](C(=O)Nc3cnc(-c4ncccn4)c(C(F)(F)F)c3)c3cnc4cc(F)nn4c32)n1 (single isomer, unassigned) [Example 165, (trans)-8-(1-(1,1-difluoroethyl)-1H-pyrazol-3-yl)-2-fluoro-8-methyl-N-(6-(pyrimidin-2-yl)-5-(trifluoromethyl)pyridin-3-yl)-7,8-dihydro-6H-cyclopenta[e]pyrazolo[1,5-a]pyrimidine-6-carboxamide]",≥ 1 µM
7,"CC(F)(F)n1cc([C@]2(C)C[C@@H](C(=O)Nc3cnc(-n4nccn4)c(Cl)c3)c3cnc4cc(F)nn4c32)cn1 (single isomer, unassigned) [Example 121]",≥ 1 µM
8,"C[C@@]1(c2ccn(C(F)F)n2)C[C@@H](C(=O)Nc2cnc(-n3nccn3)c(C(F)(F)F)c2)c2cnc3cc(F)nn3c21 (single isomer, unassigned) [Example 125]",≥ 1 µM
9,"CC1(c2ccn(C(F)F)n2)CC(C(=O)Nc2cnc(-c3ncc(F)cn3)c(C(F)(F)F)c2)c2cnc3cc(F)nn3c21 (single isomer, unassigned) [Example 117]",0.1 to 1 µM
10,"Cn1cc([C@@]2(C)C[C@H](C(=O)Nc3cnc(OC(F)(F)F)c(C#N)c3)c3cnc4cc(F)nn4c32)cn1 (single isomer, unassigned) [Example 52]",0.01 to 0.1 µM
11,"C[C@@]1(c2ccn(C(F)F)n2)C[C@@H](C(=O)Nc2cnc(-c3ncccn3)c(Cl)c2)c2cnc3cc(F)nn3c21 (single isomer, unassigned) [Example 141]",≥ 1 µM
12,"C[C@]1(c2cnn(C3CC3)c2)C[C@@H](C(=O)Nc2cnc(-n3nccn3)c(Cl)c2)c2cnc3cc(F)nn3c21 (single isomer, unassigned) [Example 31]",≥ 1 µM
13,"C[C@]1(c2ccn(C(F)F)n2)C[C@@H](C(=O)Nc2cnc(OC(F)F)c(C#N)c2)c2cnc3cc(F)nn3c21 (single isomer, unassigned) [Example 113]",0.1 to 1 µM
14,"C[C@@]1(c2cnn(C(F)F)c2)C[C@H](C(=O)Nc2cnc(OC(F)F)c(C#N)c2)c2cnc3cc(F)nn3c21 (single isomer, unassigned) [Example 94]",0.01 to 0.1 µM
15,"COc1cc(NC(=O)[C@@H]2C[C@](C)(c3ccn(C(F)F)n3)c3c2cnc2cc(F)nn32)cnc1-c1ncccn1 (single isomer, unassigned) [Example 182]",≥ 1 µM

# Other lines, results leading:
row,IC50,Structure (SMILES)
1,< 0.01 µM,"C[C@]1(c2cnn(C3CC3)c2)C[C@H](C(=O)Nc2cnc(OC(F)F)c(C#N)c2)c2cnc3cc(F)nn3c21 (single isomer, unassigned) [Example 72]"
2,0.1 to 1 µM,"C[C@]1(c2cnn(C3CC3)c2)C[C@@H](C(=O)Nc2cnc(OC(F)F)c(C#N)c2)c2cnc3cc(F)nn3c21 (single isomer, unassigned) [Example 75]"
3,0.1 to 1 µM,"Cn1ccc([C@]2(C)C[C@H](C(=O)Nc3cnc(-n4nccn4)c(C(F)(F)F)c3)c3cnc4cc(F)nn4c32)n1 (single isomer, unassigned) [Example 146]"
4,≥ 1 µM,"Cn1ccc([C@]2(C)C[C@@H](C(=O)Nc3cnc(-n4nccn4)c(C(F)(F)F)c3)c3cnc4cc(F)nn4c32)n1 (single isomer, unassigned) [Example 145]"
5,≥ 1 µM,"CC1(c2cnn(C(F)F)c2)CC(C(=O)Nc2cnc(N=S3(=O)CCC3)c(Cl)c2)c2cnc3cc(F)nn3c21 (single isomer, unassigned) [Example 97]"
6,0.1 to 1 µM,"Cn1cc([C@]2(C)C[C@H](C(=O)Nc3cnc(-n4nccn4)c(Cl)c3)c3cnc4cc(F)nn4c32)cn1 (racemic) [Example 3, (cis)-N-(5-chloro-6-(2H-1,2,3-triazol-2-yl)pyridin-3-yl)-2-fluoro-8-methyl-8-(1-methyl-1H-pyrazol-4-yl)-7,8-dihydro-6H-cyclopenta[e]pyrazolo[1,5-a]pyrimidine-6-carboxamide]"
7,0.1 to 1 µM,"CC(F)(F)n1ccc([C@]2(C)C[C@H](C(=O)Nc3cnc(-c4ncccn4)c(Cl)c3)c3cnc4cc(F)nn4c32)n1 (racemic) [Example 170, (cis)-N-(5-chloro-6-(pyrimidin-2-yl)pyridin-3-yl)-8-(1-(1,1-difluoroethyl)-1H-pyrazol-3-yl)-2-fluoro-8-methyl-7,8-dihydro-6H-cyclopenta[e]pyrazolo[1,5-a]pyrimidine-6-carboxamide]"
8,≥ 1 µM,"CC1(c2ccn(C(F)F)n2)CC(C(=O)Nc2cnc(-c3ncccn3)c(C(F)F)c2)c2cnc3cc(F)nn3c21 (single isomer, unassigned) [Example 194]"
9,≥ 1 µM,"C[C@@]1(c2cn(C(F)F)nn2)C[C@@H](C(=O)Nc2cnc(-n3nccn3)c(Cl)c2)c2cnc3cc(F)nn3c21 (single isomer, unassigned) [Example 176]"
10,0.01 to 0.1 µM,"C[C@@]1(c2ccn(C(F)F)n2)C[C@H](C(=O)Nc2cnc(-n3nccn3)c(C(F)(F)F)c2)c2cnc3cc(F)nn3c21 (single isomer, unassigned) [Example 126]"
11,≥ 1 µM,"CC(F)(F)n1ccc([C@]2(C)C[C@@H](C(=O)Nc3cnc(-c4ncccn4)c(Cl)c3)c3cnc4cc(F)nn4c32)n1 (single isomer, unassigned) [Example 169]"
12,0.01 to 0.1 µM,"Cc1cc2ncc3c(n2n1)[C@@](C)(c1ccn(C(F)F)n1)C[C@@H]3C(=O)Nc1cnc(-c2ncccn2)c(C(F)(F)F)c1 (racemic) [Example 195, (tras)-8-(1-(difluoromethyl)-1H-pyrazol-3-yl)-2,8-dimethyl-N-(6-(pyrimidin-2-yl)-5-(trifluoromethyl)pyridin-3-yl)-7,8-dihydro-6H-cyclopenta[e]pyrazolo[1,5-a]pyrimidine-6-carboxamide]"
13,< 0.01 µM,"C[C@]1(c2cnn(C(F)F)c2)C[C@H](C(=O)Nc2cnc(-n3nccn3)c(C(F)(F)F)c2)c2cnc3cc(F)nn3c21 (single isomer, unassigned) [Example 80]"
14,< 0.01 µM,"CC(C)n1cc([C@@]2(C)C[C@H](C(=O)Nc3cnc(-n4nccn4)c(Cl)c3)c3cnc4cc(F)nn4c32)cn1 (single isomer, unassigned) [Example 48]"
15,0.1 to 1 µM,"C[C@@]1(c2cnn(C(F)F)c2)C[C@H](C(=O)Nc2cnc(-c3ncccn3)c(C(F)(F)F)c2)c2cnc3cc(F)nn3c21 (single isomer, unassigned) [Example 150]"
